Publication PMC11123956, “Nobiletin Stimulates Adrenal Hormones and Modulates the Circadian Clock in Mice” (Nutrients, 2024)

What was measured:
PDE3A = molecular target: T1, PDE3A (Homo sapiens, UniProt Q14432); test: PDE enzyme  assay, PDE3A; type: biochemical
T1 construct: purchased Eurofins Panlabs Discovery Services Taiwan, Ltd. (contract assay); host or cells: insect Sf9 cells
Method: (§1) Enzyme assays for various subtypes of PDE (Table 1 and Figure 4) were conducted by Eurofins Panlabs Discovery Services Taiwan, Ltd. (New Taipei City, Taiwan). In the assays, five or six concentrations of nobiletin over five or six orders of magnitude were examined in experiments conducted in duplicate to determine the IC50 (concentration of nobiletin exerting half-maximal inhibition of control-specific activity). IC50 values were determined by nonlinear least squares regression analysis using MathIQTM (ID Business Solutions Ltd., Woking, UK). FAM-cAMP, FAM-cGMP (0.1 μM), and 100 μM [^3H]cGMP + cGMP were used for the substrate in the human recombinant insect Sf9 cells or Bovine retinal rod outer segments depending on the PDE subtype. The spectrofluorometric quantitation of fluorescein-AMP-IMAP, fluorescein-GMP-IMAP, or [^3H] guanosine was used depending on the PDE subtype. A known […] of each PDE was used as the positive control.

PDE4A1A = molecular target: T2, PDE4A1A (Homo sapiens, UniProt P27815); test: PDE enzyme (kinase) assay, PDE4A1A; type: biochemical
T2 construct: purchased Eurofins Panlabs Discovery Services Taiwan, Ltd. (contract assay); host or cells: insect Sf9 cells
Method: as §1
(§2) Figure 4 PDE kinase assays and the acute clock gene expression changes by PDE4 inhibitor or ROR α/γ agonist. (A) Inhibitory effect of nobiletin on PDE4A1, 4B1, and 10A2. Various concentrations of nobiletin (1–100 μM) were used for IC50 determination (Table 1). Values represent the mean of two experiments. Positive controls were rolipram for PDE4A1 and 4B1 and papaverine for PDE10A2. […]

PDE10A2 = molecular target: T3, PDE10A2 (Homo sapiens, UniProt Q9Y233); test: PDE enzyme (kinase) assay, PDE10A2; type: biochemical
T3 construct: purchased Eurofins Panlabs Discovery Services Taiwan, Ltd. (contract assay); host or cells: insect Sf9 cells
Method: as §1, §2

[1] = tested on: PER2::LUC rhythm in peripheral tissues (kidney, liver, submandibular gland); test: In vivo bioluminescence imaging of peripheral PER2::LUC rhythm; set-up: species or system mice; conditions: 100 mg/kg i.p., 3 days
Method: Male C57BL/6J mice (7 weeks old) were purchased from Charles River Japan (Kanagawa, Japan) and used for the serum hormone assay and RT-PCR. Male ICR mice were purchased from Tokyo Laboratory Animals Science Co., Ltd. (Tokyo, Japan), and female PERIOD2::LUCIFERASE (PER2::LUC) knock-in mice (ICR background) bred at Waseda University were used for blood glucose measurements and in vivo imaging assays, respectively. The mice were all housed under conditions of controlled temperature (23 °C ± 3 °C), humidity (50% ± 20%), and lighting (lights on from 07:00 to 19:00 at Taisho Pharmaceutical Co., Ltd. or from 08:00 to 20:00 at Waseda University). In the 24 h cycle, Zeitgeber time 0 (ZT0) was designated as the time when the lights were turned on, and ZT12 was designated as the time when the lights were turned off. All the mice were given access to food and tap water ad libitum, and nobiletin (10–100 mg/kg; purchased from FUJIFILM Wako Pure Chemical Corporation, Osaka, Japan) was administered by intraperitoneal (i.p.) injection in the vehicle (10 mL/kg body weight) containing 0.5% carboxymethyl cellulose (CMC). Rolipram (PDE4 inhibitor, FUJIFILM Wako Pure Chemical Corporation) and SR1078 (RORα/γ agonist, FUJIFILM Wako Pure Chemical Corporation) were also used for the experiment at 10 mg/kg in 0.5% CMC [12]. Mice were euthanized by rapid decapitation for whole blood samples.
An in vivo imaging system (IVIS) (Caliper Life Sciences, Hopkinton, MA, USA) was used to monitor the PER2::LUC activity rhythm waveform in the peripheral tissues (kidney, liver, and submandibular gland) of the mice. A previously developed protocol and analytical method to monitor bioluminescence oscillations in peripheral tissues was used. Briefly, the mice were anesthetized with isoflurane (FUJIFILM Wako Pure Chemical Corporation, Osaka, Japan) and enriched with oxygen. Mice were anesthetized and injected subcutaneously on the back and near the neck with D-luciferin potassium salt (FUJIFILM Wako Pure Chemical Corporation, Osaka, Japan) at a dose of 15 mg/kg body weight. Images were taken using an IVIS, in the dorsal-up position for the kidney 8 min after injection and in the ventral-up position for the liver and the submandibular gland 10 min after injection. Images were obtained six times/day at 4 h intervals (ZT3, 7, 11, 15, 19, and 23) (Figure 1 and Figure 2). The mice were returned to their home cages after each imaging procedure and quickly recovered from isoflurane anesthesia. Bioluminescence emitted from the kidneys and liver was calculated automatically using Living Image 3.2 software (Caliper Life Sciences). The average photon/min value for the six time points from each day was designated as 100%, and the bioluminescence rhythm for the entire day was expressed as a percentage of each set of six time points for individual organs. The peak phase and amplitude of the normalized data were determined using a single cosinor procedure program (Acro.exe version 3.5 [14]).
Figure 1 Experimental protocol for in vivo imaging. PER2::LUC female mice were treated with control (0.5% CMC) or nobiletin (100 mg/kg) at the same time points (ZT0, 4, 8, 12, 16, or 20) for three consecutive days, and then measured for peripheral clocks by in vivo whole-body imaging to examine phase–response curves (n = 4–5 in each).
Figure 2 Time-of-day dependence of peripheral PER2::LUC changes in nobiletin injection. (A) Representative photo images of in vivo PER2::LUC bioluminescence in the kidney, liver, and submandibular gland (sab gla). (B) Waveforms of PER2::LUC rhythm in each tissue at each treatment time. (C,D) Phase–response curves or amplitude–response curves of nobiletin injections in peripheral PER2::LUC rhythm. […]

T3 sequence (Q9Y233 267-1055): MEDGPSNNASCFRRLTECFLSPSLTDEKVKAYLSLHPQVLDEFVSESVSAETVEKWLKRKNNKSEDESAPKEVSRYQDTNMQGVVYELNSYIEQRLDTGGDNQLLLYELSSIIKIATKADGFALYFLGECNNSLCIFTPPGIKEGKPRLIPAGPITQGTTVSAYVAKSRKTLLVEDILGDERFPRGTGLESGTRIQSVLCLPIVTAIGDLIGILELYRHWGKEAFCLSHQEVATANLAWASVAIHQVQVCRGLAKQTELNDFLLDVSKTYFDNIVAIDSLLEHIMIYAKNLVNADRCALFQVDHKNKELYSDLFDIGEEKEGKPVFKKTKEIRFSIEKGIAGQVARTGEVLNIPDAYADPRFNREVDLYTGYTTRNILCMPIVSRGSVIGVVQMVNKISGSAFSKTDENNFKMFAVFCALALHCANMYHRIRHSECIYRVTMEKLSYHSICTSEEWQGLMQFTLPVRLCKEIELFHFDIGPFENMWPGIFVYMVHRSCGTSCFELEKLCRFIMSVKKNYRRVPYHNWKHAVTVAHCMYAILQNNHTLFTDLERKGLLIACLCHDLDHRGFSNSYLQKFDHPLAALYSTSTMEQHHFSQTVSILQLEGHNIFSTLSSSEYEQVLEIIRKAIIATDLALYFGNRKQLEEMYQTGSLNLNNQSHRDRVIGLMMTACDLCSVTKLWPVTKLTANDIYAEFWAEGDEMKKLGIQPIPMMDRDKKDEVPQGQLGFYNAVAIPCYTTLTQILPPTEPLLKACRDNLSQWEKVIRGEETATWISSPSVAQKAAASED
T2 sequence (P27815 1-647 isoform P27815-4): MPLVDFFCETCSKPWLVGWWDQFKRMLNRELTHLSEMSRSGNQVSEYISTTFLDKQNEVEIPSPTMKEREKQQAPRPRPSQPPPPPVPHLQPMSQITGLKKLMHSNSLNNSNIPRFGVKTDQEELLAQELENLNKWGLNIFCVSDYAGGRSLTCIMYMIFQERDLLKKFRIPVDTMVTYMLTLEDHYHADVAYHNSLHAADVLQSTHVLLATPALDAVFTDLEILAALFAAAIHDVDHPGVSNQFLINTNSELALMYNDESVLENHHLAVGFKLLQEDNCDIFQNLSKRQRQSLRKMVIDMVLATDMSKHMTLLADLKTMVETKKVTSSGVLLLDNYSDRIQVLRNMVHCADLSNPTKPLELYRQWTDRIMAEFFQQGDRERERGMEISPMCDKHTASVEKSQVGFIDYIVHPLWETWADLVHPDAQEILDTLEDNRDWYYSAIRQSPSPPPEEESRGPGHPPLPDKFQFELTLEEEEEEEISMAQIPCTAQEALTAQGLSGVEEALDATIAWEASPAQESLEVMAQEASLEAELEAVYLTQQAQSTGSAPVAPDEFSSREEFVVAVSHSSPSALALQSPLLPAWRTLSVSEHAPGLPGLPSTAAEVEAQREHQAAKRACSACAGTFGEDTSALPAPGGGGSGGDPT
T1 sequence (Q14432 whole entry): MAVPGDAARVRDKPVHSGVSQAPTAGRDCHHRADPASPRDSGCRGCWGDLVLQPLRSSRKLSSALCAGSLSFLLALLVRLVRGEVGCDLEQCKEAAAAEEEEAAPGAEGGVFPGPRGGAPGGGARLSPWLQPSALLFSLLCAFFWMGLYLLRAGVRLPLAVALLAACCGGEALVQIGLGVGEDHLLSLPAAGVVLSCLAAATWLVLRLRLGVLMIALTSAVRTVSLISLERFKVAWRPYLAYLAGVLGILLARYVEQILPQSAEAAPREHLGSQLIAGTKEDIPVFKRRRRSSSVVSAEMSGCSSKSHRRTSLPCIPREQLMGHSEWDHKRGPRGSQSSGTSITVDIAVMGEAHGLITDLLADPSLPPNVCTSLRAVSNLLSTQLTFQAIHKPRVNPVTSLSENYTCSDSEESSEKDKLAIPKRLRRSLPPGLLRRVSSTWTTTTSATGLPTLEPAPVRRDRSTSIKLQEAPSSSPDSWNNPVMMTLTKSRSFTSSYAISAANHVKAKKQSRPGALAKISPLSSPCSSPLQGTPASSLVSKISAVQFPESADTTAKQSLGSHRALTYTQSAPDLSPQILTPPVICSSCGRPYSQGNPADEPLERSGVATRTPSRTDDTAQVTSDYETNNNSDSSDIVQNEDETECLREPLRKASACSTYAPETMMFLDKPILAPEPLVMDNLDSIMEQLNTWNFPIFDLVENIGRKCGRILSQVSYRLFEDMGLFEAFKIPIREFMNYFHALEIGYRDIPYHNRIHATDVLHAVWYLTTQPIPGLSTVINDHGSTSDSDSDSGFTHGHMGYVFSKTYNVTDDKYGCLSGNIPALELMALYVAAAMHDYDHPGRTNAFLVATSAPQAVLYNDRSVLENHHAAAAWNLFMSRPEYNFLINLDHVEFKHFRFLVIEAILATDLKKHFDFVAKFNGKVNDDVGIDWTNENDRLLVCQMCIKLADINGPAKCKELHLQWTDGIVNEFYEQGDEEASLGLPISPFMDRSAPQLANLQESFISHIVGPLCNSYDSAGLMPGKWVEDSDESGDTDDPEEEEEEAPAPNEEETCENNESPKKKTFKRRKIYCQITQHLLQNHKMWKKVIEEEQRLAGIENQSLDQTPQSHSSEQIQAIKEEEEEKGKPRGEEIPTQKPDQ

`COc1ccc(-c2cc(=O)c3c(OC)c(OC)c(OC)c(OC)c3o2)cc1OC` [nobiletin] was tested, and the IC50 (PDE3A) was 16 µM, the IC50 (PDE4A1A; IC50, PDE4A1A, bound stated in the discussion) was ≤ 6.03 µM and the IC50 (PDE4A1A; IC50 Dose, PDE4A1A, duplicate) was 5.23 µM. For the same molecule, the IC50 (PDE10A2; IC50, PDE10A2, bound stated in the discussion) was ≤ 6030 nM, the IC50 (PDE10A2; IC50 Dose, PDE10A2, duplicate) was 1510 nM and the “amplitude of PER2::LUC rhythm vs control” value ([1]; kidney, liver and submandibular gland (all three tissues), treatment at ZT16) was “increased”. The “phase of PER2::LUC rhythm vs control” value ([1]; kidney, administration at ZT4) was “phase advancement”, the “amplitude of PER2::LUC rhythm vs control” value ([1]; kidney, treatment at ZT0 or 4) was “decreased” and the “phase of PER2::LUC rhythm vs control” value ([1]; kidney, treatment at ZT20) was “phase delay”. For the same molecule, the “amplitude of PER2::LUC rhythm vs control” value ([1]; liver, treatment at ZT12) was “decreased”, the “phase of PER2::LUC rhythm vs control” value ([1]; liver, treatment at ZT12) was “phase-advanced” and the “phase of PER2::LUC rhythm vs control” value ([1]; submandibular gland, administration at ZT4) was “phase advancement”.
